According to patent US7438933B2, “Maternal multi-nutrient against diabetes-related birth defects” (The Board of Trustees of the University of Arkansas System, priority 2004, dated 2008):

Tests used:
[1] = system: diabetic pregnancies; settings: experimental models; reduced from 25%; cited from earlier work
[2] = system: embryos of diabetic rats; assay: Dietary supplementation of pregnant STZ-diabetic and non-diabetic rats; neural tube defects in E12 embryos; type: in vivo, rat; settings: supplemented diet from day 1 of pregnancy, embryos at E12
Experimental: To induce diabetes, 8-week-old Sprague-Dawley female rats are injected with 65 mg/kg of streptozotocin via the tail vein. Blood glucose levels are monitored daily (by tail vein puncture using a lancet) using a Prestige Smart blood glucose meter (Home Diagnostics, Fort Lauderdale, Fla.). Once a level of hyperglycemia indicative of diabetes (>250 mg/dl) is achieved, a sustained-release insulin pellet (Linplant, Linshin, Canada) will be inserted subcutaneously.
When glucose levels are restored to normal (80-150 mg/dl) and are stable for at least three continuous days, matings can be set up with male rats of the same strain. Day zero of pregnancy is established by identifying spermatozoa in vaginal smears. At designated developmental stages, insulin pellets are withdrawn to generate hyperglycemia in the pregnant rats. A group of control rats will continuously receive insulin during the course of the experiment. Glucose levels and maternal weight are continuously monitored during the pregnancy. Since it has already been shown that there is no difference in embryonic development between streptozotocin/insulin-treated and non-streptozotocin-treated animals, the streptozotocin/insulin-treated groups are used as an equivalent of non-diabetic control. At the end of the experiment, rats are euthanized and embryos dissected out of the uterus for examination and analysis. At least four pregnant rats are included in each group, from which 40-60 embryos can be obtained for examination. For each type of study, at least three replicate experiments will be carried out.
To investigate the effects of maternal hyperglycemia on embryonic malformations, the investigators employed a rat model that induces diabetes by streptozotocin (STZ). Subcutaneously implanted insulin pellets maintained euglycemia at the time of mating. On day 4 of pregnancy, the insulin pellets were removed, and the developing embryos were exposed to hyperglycemia during organogenesis (days 9-12). To maintain a euglycemic control, insulin pellets were retained in the body during the entire experimental course. On day 12, both sets of rats were euthanized, embryos were dissected out of the uteri for examination, and each embryo's yolk sac was collected for biochemical and molecular analyses.
After removal from the dams, embryos were examined under a dissecting microscope and assessed for morphological malformations in a number of categories to determine the effects of maternal hyperglycemia. […]
At E12, embryos were dissected out of uteri and evaluated for neural tube defects (NTDs), which were used as a measure of malformation rates.

[3] = system: yolk sacs; assay: DNA laddering assay of apoptosis in embryonic yolk sacs after maternal supplementation; type: in vivo, rat; settings: embryos of diabetic mothers with supplemented diet, FIG. 7
Experimental: To determine whether hyperglycemia is associated with programmed cell death in embryos, DNA laddering was examined in yolk sacs of embryos with either diabetic or non-diabetic mothers. Yolk sac tissues were collected from embryos, and DNA was extracted using DNeasy Tissue Kit (Qiagen, Valencia, Calif.) and resolved on 0.5% agarose gel. […] To examine whether supplemented diets affected apoptosis in developing embryos of diabetic dams, DNA fragmentation (an indicator of apoptosis) was analyzed using DNA laddering assays.

[4] = system: caspase3; assay: Western blot of phosphorylated caspase3 in yolk sac cells; type: in vivo, rat; settings: embryos of diabetic dams with supplementation, FIG. 4A
Description: (§1) Apoptosis is mediated by a program involving a number of factors, including caspase3 and Bax (a member of the Bcl-2 family). Hyperglycemia may stimulate JNK activity, which then activates caspases and leads to apoptosis. Activation of Bax is also a hallmark of ongoing apoptosis. To determine whether caspase and Bax activation are involved in maternal diabetic embryopathy, changes in the levels of phosphorylated caspase3 and Bax in yolk sac cells from embryos with either diabetic or non-diabetic mothers were assessed. Cell lysates were resolved on 12% polyacrylamide gel and blotted on nylon membrane. The blots were probed with antibodies raised against phosphorylated caspase3 or Bax (Santa Cruz Biotechnologies, Santa Cruz, Calif.). Signals were detected using a chemiluminescence detection method and exposed to X-ray film (FIG. 4A). The density of the bands on X-ray film was measured using densitometry (VersaDoc Imaging System, Bio-Rad, Hercules, Calif.) and analyzed with one-dimensional analysis software (Bio-Rad; FIGS. 4B and C). The value of each band was calculated as a percentage of the control, which was set at 100%.

[5] = system: Bax; assay: Western blot of phosphorylated Bax in yolk sac cells; type: in vivo, rat; settings: embryos of diabetic dams with supplementation, FIG. 4A
Description: as §1

[6] = system: ERK1/2; assay: Western blot of phosphorylated ERK1/2 in embryonic yolk sac cells; type: in vivo, rat; settings: diabetic dams with supplemented diet, changed to the levels of non-diabetic rats, FIG. 8
Experimental: (§2) The active forms of ERK and JNK are phosphorylated, so their activation in yolk sac tissues were assessed by Western blot detection of the corresponding phosphoproteins. The levels of phosphorylated Raf-1 which activates ERKs and Akt which is an antiapototic protein were also assessed by western blot. Yolk sac tissues were isolated, protein was extracted and analyzed using Western blotting with antibodies specific for phosphorylated ERK-1 and -2 (p-ERK1/2), JNK-1 and -2 (p-JNK1/2), RAF-1 and Akt (FIG. 6A). […] Levels of phosphorylated ERK1/2, JNK1/2, Raf-1 and Akt in embryonic yolk sac cells were evaluated using Western blot assays.

[7] = system: JNK1/2; assay: Western blot of phosphorylated JNK1/2 in embryonic yolk sac cells; type: in vivo, rat; settings: diabetic dams with supplemented diet, changed to the levels of non-diabetic rats, FIG. 8
Experimental: as §2

Compound | malformation rate in diabetic pregnancies [1] | NTDs (%) ([2]; diabetic rats) | NTDs (%) ([2]; non-diabetic rats) | DNA fragmentation (DNA laddering) in yolk sacs [3] | phosphorylated caspase3 level in yolk sacs [4] | phosphorylated Bax level in yolk sacs [5] | level of activated ERKs (p-ERK1/2) in embryonic yolk sacs [6] | level of activated JNKs (p-JNK1/2) in embryonic yolk sacs [7]
O=C(O)CCCC[C@@H]1CCSS1 (racemic) [lipoic acid] | 10% | – | – | – | – | – | – | –
CCCCC/C=C\C/C=C\C/C=C\C/C=C\CCCC(=O)O [arachidonic acid] | – | 7.6% | 4.1% | DNA fragmentation was eliminated | reversal of increased caspase3 and Bax levels | reversal of increased caspase3 and Bax levels | altered embryo levels of activated ERKs and JNKs | altered embryo levels of activated ERKs and JNKs
Cc1c(C)c2c(c(C)c1O)CC[C@@](C)(CCC[C@H](C)CCC[C@H](C)CCCC(C)C)O2 [vitamin E, α-tocopherol] | – | 6.9% | 5.0% | DNA fragmentation was eliminated | reversal of increased caspase3 and Bax levels | reversal of increased caspase3 and Bax levels | altered embryo levels of activated ERKs and JNKs | altered embryo levels of activated ERKs and JNKs
